Article PMC6749586, “Design, Synthesis, and Anticancer Effect Studies of Iridium(III) Polypyridyl Complexes against SGC-7901 Cells” (Molecules, 2019)

Assays:
[1] = system: BEL-7402 cells; test: MTT cytotoxicity assay, BEL-7402; assay type: cell-based, human; conditions: 48 h, read-out: IC50 toward BEL-7402
Source text: The lung carcinoma cell line A549, the cervical cancer cell line HeLa, the esophageal cancer cell line Eca-109, and the human hepatocellular carcinoma cell line BEL-7402 were purchased from the cell bank of the Cell Institute of Sinica Academia Shanghai (Shanghai, China). The gastric adenocarcinoma cell line SGC-7901, the hepatocellular carcinoma cell line HepG2, and the mouse embryonic fibroblast cell line NIH 3T3 were obtained from the Experimental Animal Center of Sun Yat-Sen University (Guangzhou, China). The BEL-7402 and SGC-7901 cell lines were cultured in Roswell Park Memorial Institute Medium (RPMI-1640); and A549, Eca-109, HepG2, and NIH 3T3 cells were grown in Dulbecco’s Modified Eagle’s Medium (DMEM), including 10% fetal bovine serum (FBS), 100 units mL^−1 penicillin/streptomycin mixture, and 2.0 g/L of NaHCO3. Cell passage experiments were performed with trypsin every 2 days to maintain exponential growth. All cells were cultured until they reached logarithmic growth phase, unless specifically noted.
Cell cytotoxicity following treatment with the iridium(III) complexes was detected by MTT assay. The cells were seeded into 96-well micro-assay culture plates (1 × 10^4 cells per well) and grown overnight in a 5% CO2 incubator at 37 °C. Then, the cell lines were treated with gradient concentrations of the complexes 1–3. After treatment for 48 h, MTT solution (5 mg mL^−1, […]) dissolved in phosphate buffer was added to each well and the cells were further cultured for 4 h. Upon completion of incubation, the solvent was removed and 100 µL/well of buffer containing dimethylformamide (50%) and sodium dodecyl sulfate (20%) was added to dissolve the produced formazan. The absorbance of each well was measured with a microplate reader at a wavelength of 490 nm. The IC50 values were determined from the plots of viability versus concentration used to treat the cells. Three independent experiments were performed to obtain the mean values.

[2] = system: SGC-7901 cells; test: ATP quantification assay (luciferin-luciferase); assay type: cell-based, human; conditions: 4.0 µM 1, 15.0 µM 2, 15.0 µM 3, 24 h; control 951.46 nM
Description: Approximately 2.4 × 10^6 cells were taken, evenly planted in a 6-well plate, and incubated overnight in an incubator at 37 °C. On the next day, the cells were exposed to different concentrations of compounds for 24 h in triplicate. Following exposure, 200 μL of cell lysis buffer was added to each well of the cell plate and lysed on ice. To measure ATP, 20 μL of the lysed cell suspension was added to 100 μL of a luciferin–luciferase reagent. Light emission was measured by a luminometer. ATP levels were determined using a standard curve.

[3] = system: SGC-7901 cells; test: Cell cycle assay (PI, flow cytometry); assay type: cell-based, human; conditions: for Percentage in the cells, G0/G1 phase / Phase of cell cycle arrest / Percentage in the cells, G2/M phase / Percentage in the cells, S phase: 4.0 µM 1, 15.0 µM 2, 15.0 µM 3, 24 h; for Percentage in the cells, G2/M phase: control 14.92%; for Percentage in the cells, S phase: control 37.46%
Description: Then, each sample was washed twice with cold PBS, re-suspended in 190 μL of PBS buffer containing 4 μL of PI (1 mg/mL), 4 μL of RnaseA (10 mg/mL) and 0.2 μL of Tritonx-100, and stained in the dark for 30 min. Finally, the cells were analyzed by flow cytometry

[4] = Oil-water partition coefficient, flask-shake method; assay type: physicochemical; conditions: octanol/water, pH 7.4, flask-shake, 25 °C
Description: The pH of the cells cultured in vitro was approximately 7.4. With this in mind, we evaluated the lipophilicity of the iridium complexes by detecting the partition coefficient at pH = 7.4, using the flask-shake method. Each drug was dissolved in pre-saturated octanol at final concentrations of 0.02 and 0.03 mM. Aliquots of 5 mL of drug solution and distilled water (previously saturated with octanol) were transferred to a 25 mL flask and shaked at 25 °C for 24 h. After the shaking was completed, the solution was allowed to stand for 48 h to fully equilibrate the aqueous phase and the organic phase. The concentration of the complexes in the aqueous phase was then measured by UV-vis spectroscopy at the maximum ultraviolet absorption (262 nm for 1, 249 nm for 2, and 251 nm for 3). The evaluation of each sample was repeated three times.

[5] = system: SGC-7901 cells; test: Annexin V-FITC/PI apoptosis analysis by flow cytometry; assay type: cell-based, human; conditions: 4.0 µM 1, 15.0 µM 2 or 3; for Early apoptotic cells (EA): 24 h (b62 says 48 h), control 2.84%
Description: A total of 1 mL of SGC-7901 cells at 2 × 10^6 cells/mL was seeded in a six-well plate and incubated overnight in a CO2 incubator at 37 °C. Then, the cells were treated with 1, 2, or 3 for 24 h. After treatment, the cells were harvested, washed three times with ice-cold PBS, and then re-suspended in 195 μL of 1 × Annexin V-FITC binding buffer. Next, 10 μL of PI and 5 μL of Annexin-FITC were sequentially added to each sample, stained in the dark for 20 min, and analyzed by a FACS Calibur flow cytometer ([…] Dickinson & Co., Franklin Lakes, NJ, USA). Annexin-V positive cells were considered apoptotic.

[6] = system: SGC-7901 cells; test: Intracellular Ca2+ level with Fluo-3AM; assay type: cell-based, human; conditions: 4.0 µM 1, 15.0 µM 2, 15.0 µM 3, 24 h; controls weak green fluorescence
Description: SGC-7901 cells in the logarithmic growth phase were seeded in 12-well microassay culture plates (1.5 × 10^5 cells per well), incubated overnight, and then treated with different concentrations of the tested complexes (4.0 µM 1, 15.0 μM 2, and 15.0 μM 3) for 24 h. The control wells were prepared by the addition of solvent (10 μL PBS buffer). The concentration of Ca^2+ was detected using the Ca^2+-sensitive fluorescent probe Fluo-3AM. Upon completion of incubation, the medium was removed and the wells were washed twice with PBS buffer, following which the cells were dyed with Fluo-3AM for 30 min. After dyeing, the cells were washed again and stained with Hoechst 33258 (10 μg mL^−1) for 30 min. The remaining dye was removed and the cells were observed under an ImageXpress Micro XLS system.

Compound	IC50 [1]	Intracellular ATP amount [2]	Percentage in the cells, G0/G1 phase [3]	Phase of cell cycle arrest [3]	Percentage in the cells, G2/M phase [3]	Percentage in the cells, S phase [3]	logPo/w [4]	Percentage including early and late apoptotic cells [5]	Early apoptotic cells (EA) [5]	Intracellular Ca2+ level, Fluo-3AM fluorescence [6]	Increase in the cells at the G0/G1 phase versus control ([3]; 15.0 µM, 24 h)
F[P-](F)(F)(F)(F)F.O=[N+]([O-])c1cc2ccc[n+]3c2c2c1ccc[n+]2[Ir-5]312([c]3ccccc3-c3cccc[n+]31)[c]1ccccc1-c1cccc[n+]12 [Complex 1, [Ir(Hppy)2(NP)]PF6]	23 ± 0.8 µM	913.91 nM	50.28%	inhibited cell proliferation at the S phase	6.70%	43.02%	1.01	37.07%	29.9%	brilliant green fluorescence	–
F[P-](F)(F)(F)(F)F.Nc1c([N+](=O)[O-])c2cccnc2c2ncccc12.[Ir+3].[c-]1ccccc1-c1ccccn1.[c-]1ccccc1-c1ccccn1 [Complex 2, [Ir(Hppy)2(NAP)]PF6]	68.7 ± 1.5 µM	880.48 nM	56.65%	cell cycle arrest at G0/G1	5.49%	37.86%	1.33	35.6%	14.8%	brilliant green fluorescence	9.03%
F[P-](F)(F)(F)(F)F.Nc1c(N)c2cccnc2c2ncccc12.[Ir+3].[c-]1ccccc1-c1ccccn1.[c-]1ccccc1-c1ccccn1 [Complex 3, [Ir(Hppy)2(DAP)]PF6]	68.8 ± 4.6 µM	945.02 nM	44.79%	inhibited cell proliferation at the S phase	10.50%	44.71%	0.78	41.8%	13.7%	brilliant green fluorescence	–
